Data published in US20030027141A1, “Combinatorial oligonucleotide PCR: a method for rapid, global expression analysis” (Board of Regents, The University of Texas System, priority 1999, published 2003).

Tests used:
[1] = test system: HME87 line of normal human mammary epithelial cells; test: Cell cycle parameters after BPDE treatment; assay type: cell-based
Method: Data for several genes whose expression did change at one or more time points is listed in Table 11 with two prominent examples shown in FIG. 20. The most dramatic change was in the expression of the transcription factor ATF3, which increased 8-9 fold at 4 and 10 h, then dropped to a 2.4-fold increase at 24 h. Changes in ATF3 expression in response to damage induced by BPDE or related compounds have not previously been described, and it will be very interesting to determine both the mechanism and the consequences of this induction. The p21/WAF1 gene, a downstream target of p53, is a mediator of G1 arrest in response to DNA damage (Levine, 1997). […] Thus, the COP analyses performed in this system have given a variety of clues concerning mechanisms operative in cells soon after BPDE treatment.

[2] = test system: HME87 line of normal human mammary epithelial cells; test: COP analysis of gene expression after carcinogen (BPDE) treatment; assay type: cell-based
[3] = test system: HME87 line of normal human mammary epithelial cells; test: DNA damage in BPDE-treated cells; assay type: cell-based; settings: 30 min BPDE treatment
Method: Control cultures were treated with tetrahydrofuran only.

[4] = test system: HME87 line of normal human mammary epithelial cells; settings: 30 min BPDE treatment; for at least 48 h
[5] = at one or more time points after BPDE treatment

OC1c2cc3ccc4cccc5ccc(c2C2OC2C1O)c3c45 (racemic) [BPDE, ±7r,8t-dihydroxy-9,10t-epoxy-7,8,9,10-tetrahydro-benzo[a]pyrene]
G1 arrest ([1]; 4 and 10 h after BPDE treatment): no G1 arrest
G1 arrest ([1]; by 24 h after BPDE treatment): appear to be a G1 arrest
ACTB expression E/C ([2]; 4 h after BPDE treatment): 1.1 ± 0.2
ATF3 expression E/C ([2]; 4 h after BPDE treatment): 7.8 ± 4.0
Beclin expression E/C ([2]; 4 h after BPDE treatment): 2.1 ± 1.4
CEBPE expression E/C ([2]; 4 h after BPDE treatment): 0.9 ± 0.3
GADD45 expression E/C ([2]; 4 h after BPDE treatment): 2.1 ± 0.7
LMNA expression E/C ([2]; 4 h after BPDE treatment): 0.7 ± 0.2
RPL23a expression E/C ([2]; 4 h after BPDE treatment): 0.6 ± 0.1
RPL30 expression E/C ([2]; 4 h after BPDE treatment): 0.8 ± 0.1
RPL35 expression E/C ([2]; 4 h after BPDE treatment): 1.2 ± 0.3
RPP1 expression E/C ([2]; 4 h after BPDE treatment): 1.4 ± 0.1
RPS7 expression E/C ([2]; 4 h after BPDE treatment): 1.1 ± 0.2
RPS15a expression E/C ([2]; 4 h after BPDE treatment): 1.0 ± 0.3
RPS26 expression E/C ([2]; 4 h after BPDE treatment): 1.2 ± 0.3
RPS29 expression E/C ([2]; 4 h after BPDE treatment): 1.1 ± 0.2
TP53 expression E/C ([2]; 4 h after BPDE treatment): 1.1 ± 0.4
p21 expression E/C ([2]; 4 h after BPDE treatment): 1.0 ± 0.1
RPS27 expression E/C ([2]; 4 h after BPDE treatment, E=BPDE, C=solvent only): 0.9 ± 0.3
ACTB expression E/C ([2]; 10 h after BPDE treatment): 0.9 ± 0.2
ATF3 expression E/C ([2]; 10 h after BPDE treatment): 9.2 ± 3.9
BTF3 expression E/C ([2]; 10 h after BPDE treatment): 1.0 ± 0.2
Beclin expression E/C ([2]; 10 h after BPDE treatment): 2.0 ± 1.1
GADD45 expression E/C ([2]; 10 h after BPDE treatment): 1.9 ± 0.7
LMNA expression E/C ([2]; 10 h after BPDE treatment): 1.1 ± 0.3
PGK expression E/C ([2]; 10 h after BPDE treatment): 1.0 ± 0.2
RPL23a expression E/C ([2]; 10 h after BPDE treatment): 1.1 ± 0.3
RPL30 expression E/C ([2]; 10 h after BPDE treatment): 1.0 ± 0.1
RPL35 expression E/C ([2]; 10 h after BPDE treatment): 1.1 ± 0.4
RPP1 expression E/C ([2]; 10 h after BPDE treatment): 1.0 ± 0.4
RPS7 expression E/C ([2]; 10 h after BPDE treatment): 1.4 ± 0.5
RPS15a expression E/C ([2]; 10 h after BPDE treatment): 1.4 ± 0.6
RPS16 expression E/C ([2]; 10 h after BPDE treatment): 0.8 ± 0.1
RPS26 expression E/C ([2]; 10 h after BPDE treatment): 1.3 ± 0.5
RPS27 expression E/C ([2]; 10 h after BPDE treatment): 1.2 ± 0.4
RPS29 expression E/C ([2]; 10 h after BPDE treatment): 1.3 ± 0.6
TP53 expression E/C ([2]; 10 h after BPDE treatment): 0.9 ± 0.1
p21 expression E/C ([2]; 10 h after BPDE treatment): 1.1 ± 0.2
ACTB expression E/C ([2]; 24 h after BPDE treatment): 1.3 ± 0.4
ATF3 expression E/C ([2]; 24 h after BPDE treatment): 2.4 ± 0.7
BTF3 expression E/C ([2]; 24 h after BPDE treatment): 0.9 ± 0.2
CEBPE expression E/C ([2]; 24 h after BPDE treatment): 1.0 ± 0.3
GADD45 expression E/C ([2]; 24 h after BPDE treatment): 0.8 ± 0.4
IMPD expression E/C ([2]; 24 h after BPDE treatment): 0.8 ± 0.2
LMNA expression E/C ([2]; 24 h after BPDE treatment): 0.9 ± 0.3
MYC expression E/C ([2]; 24 h after BPDE treatment): 1.2 ± 0.5
NFKB expression E/C ([2]; 24 h after BPDE treatment): 1.5 ± 0.4
PGK expression E/C ([2]; 24 h after BPDE treatment): 1.1 ± 0.2
RPL23a expression E/C ([2]; 24 h after BPDE treatment): 1.0 ± 0.2
RPL30 expression E/C ([2]; 24 h after BPDE treatment): 1.0 ± 0.2
RPL35 expression E/C ([2]; 24 h after BPDE treatment): 1.2 ± 0.6
RPP1 expression E/C ([2]; 24 h after BPDE treatment): 1.7 ± 1.0
RPS7 expression E/C ([2]; 24 h after BPDE treatment): 1.7 ± 0.8
RPS15a expression E/C ([2]; 24 h after BPDE treatment): 1.2 ± 0.3
RPS16 expression E/C ([2]; 24 h after BPDE treatment): 0.9 ± 0.2
RPS26 expression E/C ([2]; 24 h after BPDE treatment): 1.5 ± 0.6
RPS27 expression E/C ([2]; 24 h after BPDE treatment): 0.9 ± 0.2
RPS29 expression E/C ([2]; 24 h after BPDE treatment): 1.7 ± 1.2
SL1 expression E/C ([2]; 24 h after BPDE treatment): 1.0 ± 0.3
TP53 expression E/C ([2]; 24 h after BPDE treatment): 0.8 ± 0.3
p21 expression E/C ([2]; 24 h after BPDE treatment): 2.3 ± 0.7
increase in expression of transcription factor ATF3 ([2]; at 4 and 10 h after BPDE treatment): 8-9 fold
increase in expression of transcription factor ATF3 ([2]; at 24 h after BPDE treatment): 2.4 fold
increase of p21/WAF1 gene expression ([2]; at 24 h after BPDE treatment): about 2 fold
expression of beclin (protein related to apoptosis) [2, 5]: upregulated
expression of transcription factor CP2 [2, 5]: upregulated
induction of p21/WAF1 gene ([2]; early times after BPDE treatment): not induced
expression of the majority of over 450 genes analyzed ([2]; one or more time points after BPDE treatment): no significant changes in expression
DNA damage in the treated cells [3]: induces a high level of DNA damage
toxicity of treatment [4]: not demonstrably toxic
